Test results published in patent US20210299034A1, “A Topical Composition” (Conopco, Inc., d/b/a UNILEVER, priority 2018, published 2021).

Tested on: Human primary melanocytes
Assay: Melanin content assay in α-MSH-stimulated melanocytes
Format: cell-based
Conditions: for Melanin Content (%) Average ± SD: 72 h, untreated control (A) = 100
Description: Human primary melanocytes were grown in melanocytes growth medium (MGM) with human melanocyte growth supplement. 500 μL/well (5×10^4 cells/well) of this solution was plated in a 24 wells plate and incubated in an incubator (Thermo Scientific, Model 3111) at 37° C. with 5% CO2 atmosphere.
After 24 h of incubation, cell cultures were treated with the test actives (as outlined in table 1) dissolved in 20% ethanol. After 1 h of actives addition, 10 nM of α-MSH was added. The cells were again incubated for 72 h in an incubator. At the end of this incubation period, the culture medium was replaced with 120 μL/well of melanin content assay reagent (10% Dimethyl sulfoxide in 1 N sodium hydroxide) and incubated for 1 h at 60° C. in a shaker incubator. The supernatant was then transferred to a 384 well plate. The absorbance was measured at 405 nm with a microtiter plate reader (Genios Pro, Tecan M 1000).
In the first set of experiments, human primary melanocytes were subjected to treatments as outlined in table 1 below.

## CCc1ccc(O)cc1O [C, 4-ethyl resorcinol]
4-ER 50 μM, 10 nM α-MSH added 1 h after active, absorbance 405 nm
  Melanin Content (%) Average ± SD: 68 ± 12.7%

## α-Melanocyte stimulating hormone [B]
10 nM MSH, example 1 vs black tea (example D), example B vs untreated control (example A)
  Melanin content, comparison in words: over and above the control cells
MSH 10 nM alone, no test active
  Melanin Content (%) Average ± SD: 121 ± 9.7%
